Test results as given in patent US8044057B2, “Methods for suppressing an immune response or treating a proliferative disorder” (The United States of America as represented by the …, priority 2003, dated 2011).
pIC50: −log10 of the molar value.

What was measured:
mTOR [1] = experiment: Western blot of phospho-mTOR S2481 (autophosphorylation) in A549 cells; type: cell-based, human; conditions: 0-100 μM LY303511, LPS/IFN-γ
Experimental: Cells were reacted with 0-100 μM LY303511 for 1 hour before addition of L/I for 30 min and preparation of cell lysates. Samples (70 μg) of proteins were separated by SDS-PAGE and transferred to nitrocellulose membranes before immunodetection of phospho-p70 S6 kinase T389 (pS6K), phospho-Akt S473 (pAkt), total p70 S6 kinase (S6K), total Akt (Akt), phospho-mTOR S2481 (pmTOR), or total mTOR (mTOR) by Western blot. Positions of protein standards (kDa) are on the right. For the bar graph and digital images shown in FIG. 1D, band density measurements were also represented graphically. Integrated band densities for pmTOR were normalized to those of total mTOR. […]
A549 cells were treated without or with 100 mcM LY303511, 200 ng/ml rapamycin, or 50 nM wortmannin in serum free media for 1 hour before addition of E. coli lipopolysaccharide (LPS), 1000 mcglml and interferon (IFN)-γ, 100 U/ml (LPS/IFN-γ or “L/I”). Cells were homogenized and the indicated proteins (see Table 1) were detected by Western blot. […]
(§1) Measurement of protein phosphorylation: A549 cells were incubated in serum-free medium without or with inhibitors for 1 hour, as indicated, before incubation for 30 minutes with a mixture of LPS, 100 μg/ml (Sigma; St. Louis, Mo.) and IFN-γ, 100 U/ml (Roche; Nutley, N.J.). […] Integrated band densities were quantified using Scion Image beta 3b software.

STAT1 = experiment: STAT1-driven luciferase reporter (GAS-luc) in A549 cells; type: cell-based, human; conditions: 100 mcM LY303511 1 hour before LPS/IFN-γ for 6 hours
Experimental: A549 cells were transiently transfected with a reporter vector expressing firefly luciferase driven by STAT1 (GAS-luc, Clontech), and incubated without or with 100 mcM LY303511, rapamycin, 200 ng/ml, or both, for 1 hour before addition of LPS/IFN-γ for 6 hours. STAT1 activity (luciferase activity) was measured in cell lysates (RLU). The data presented are triplicate samples ±SEM, and are representative of two independent experiments.
A549 cells were transiently transfected with a reporter vector expressing firefly luciferase driven by STAT1 (GAS-luc, Clontech), and incubated without or with 100 mcM LY303511, rapamycin, 200 ng/ml, or both, for 1 hour before addition of LPS/IFN-γ for 6 hours. STAT1 activity (luciferase activity) was measured in cell lysates (RLU). The data presented in FIG. 8 are triplicate samples±SEM, and are representative of two independent experiments.

AKT = experiment: Western blot of phospho-Akt S473 in PASM cells; type: cell-based, human
Experimental: FIGS. 4A-4D are bar graphs and digital images showing that LY303511 inhibits serum-stimulated phosphorylation of S6K and Akt (FIGS. 4A and 4B), as well as proliferation in PASM cells (FIGS. 4C and 4D). After incubation in serum-free medium for 24 hours, PASM cells were incubated without or with 100 μM LY303511, rapamycin, 200 ng/ml, or 200 nM wortmannin (FIG. 4A), or 0-100 μM LY303511 (FIG. 4B), for 1 hour before the addition of 10% FBS for 30 min and preparation of cell lysates. Equal amounts of protein (20 μg/gel) were separated by SDS-PAGE and transferred to nitrocellulose membranes before immunodetection of phospho-p70 S6 kinase T389 (pS6K) orphospho-Akt S473 (pAkt) by Western blot. Data are from one experiment representative of five.
HPASM cells were purchased from Clonetics and passaged according to the manufacturer's instructions. Cells were plated in 100 mm dishes, and allowed to grow to near confluence before serum starvation for 24 hours. […] Cells were homogenized and the indicated proteins were detected by Western blot.
as §1

mTOR [2] = experiment: Western blot of phospho-mTOR S2481 in PASM cells; type: cell-based, human
Experimental: HPASM cells were purchased from Clonetics and passaged according to the manufacturer's instructions. Cells were plated in 100 mm dishes, and allowed to grow to near confluence before serum starvation for 24 hours. Inhibitors were added to the media 1 hour before the addition of 10% FBS for 30 minutes. Cells were homogenized and the indicated proteins were detected by Western blot.
Measurement of protein phosphorylation: A549 cells were incubated in serum-free medium without or with inhibitors for 1 hour, as indicated, before incubation for 30 minutes with a mixture of LPS, 100 μg/ml (Sigma; St. Louis, Mo.) and IFN-γ, 100 U/ml (Roche; Nutley, N.J.). PASM cells were incubated in serum-free medium without or with inhibitors for 24 h as indicated, before incubation for 30 min with 10% FBS. A549 or PASM cells were washed once with cold PBS and incubated for 15 minutes on ice ih lysis buffer (20 mM Tris pH 8.0, 1% Nonidet P-40, 1 mM EDTA, 5 mM benzamidine, aprotinin, 10 μg/ml, leupeptin, 10 μg/ml, trypsin soybean inhibitor, 1 mM PMSF, 50 mM sodium fluoride, 100 μM sodium orthovanadate, and 1: 100 Sigma phosphatase inhibitor set I containing cantharidin, microcystin LR and bromotetramizole). After freezing and thawing, lysates were centrifuged for 30 min at 16,000×g before protein measurement and storage at −80° C. […] Integrated band densities were quantified using Scion Image beta 3b software.

[3] = test system: primary mouse peritoneal macrophages; experiment: LPS-induced cytokine production in peritoneal macrophages; type: cell-based; conditions: LPS 1 μg/ml; 1~100 μM; 24 hours
Experimental: FIG. 7A-F are bar graphs showing that LY303511 inhibits lipopolysaccharide (LPS)—induced cytokine production or STAT1 activity in primary mouse peritoneal macrophages or A549 cells. Wild-type mice from Jackson (Jac) and Taconic (Tac) were used. Peritoneal macrophages were harvested three days after thioglycolate injection. Cells were incubated for three days in 2% FCS RPMI. The supernatant was collected after stimulation with LPS 1 μg/ml with or without LY 303511 (1˜100 μM) or DMSO for 24 hours. Cytokines (interleukin (IL)-12p70, tumor necrosis factor (TNF)-α, interferon (IFN)-γ, MCP-1, IL-10, IL-6) were measured in cell supematants. […] Thus, LY303511 clearly can reduce cytokine expression, and has an anti-inflammatory effect.
Peritoneal macrophages were harvested three days after thioglycolate injection. Cells were incubated for three days in 2% FCS RPM. The supernatant was collected after stimulation with LPS 1 μg/ml with or without LY 303511 (1˜100 μM) or DMSO for 24 hours. Cytokines (interleukin (IL)-12p70, tumor necrosis factor (TNF)-α, interferon (IFN)-γ, monocyte chemoattractant protein (MCP)-1, IL-10, IL-6) were measured in cell supernatants. […] Thus, LY303511 clearly can reduce cytokine expression, and has an anti-inflammatory effect.

O=c1cc(N2CCNCC2)oc2c(-c3ccccc3)cccc12 [LY303511, 2-(4-piperazinyl)-8-phenyl-4H-1-benzopyran-4-one]
autophosphorylation of mTOR (S2481) (mTOR [1]): inhibits autophosphorylation of mTOR in a concentration-dependent fashion
STAT1 activation (luciferase activity) (STAT1): inhibited STAT1 activation
pIC50 (AKT; Homo sapiens, pulmonary artery smooth muscle cells, densitometry, read-out: IC50 for inhibition of Akt phosphorylation): 4.00 to 5.00
phosphorylation of AKT (AKT; PASM cells, 10% FBS for 30 minutes): inhibits phosphorylation of AKT, albeit to a lesser extent than phosphorylation of p70 S6 kinase
serum-stimulated phosphorylation of mTOR at S2481 (mTOR [2]): inhibited serum-stimulated phosphorylation of mTOR at S2481
LPS-induced cytokines (IL-12p70, TNF-α, IFN-γ, MCP-1, IL-10, IL-6) in cell supernatants [3]: dose-dependent reduction of all six cytokines
